Toxic doses and inconclusive results are not listed. Rule as the data show it: active = T/C of 150% or more; inactive = T/C below 125%.
Test system: L1210 leukemia ip in BDF1 mice, survival T/C
Test: NCI In Vivo Anticancer Drug Screen. Data for tumor model L1210 Leukemia (intraperitoneal) in B6D2F1 (BDF1) mice
Settings: endpoint: mean survival time, higher = longer survival
Outline: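 Tumor cells were implanted, animals were treated, and survival was followed. The result divides the treated measurement by the vehicle-control measurement.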

Measured: T/C

Nc1nc2ncc(CNc3cnc(C(=O)NC(CCC(=O)O)C(=O)O)nc3)nc2c(=O)[nH]1 (stereo unspecified)
inactive: dose: 50.0 mg/kg/injection, schedule: Q01DX009 (ip), vehicle: alkali diluted with saline 107 % of control | dose: 100.0 mg/kg/injection, schedule: Q01DX001 (ip), vehicle: saline with Tween-80 103 % of control | dose: 200.0 mg/kg/injection, schedule: Q01DX001 (ip), vehicle: saline with Tween-80 112 % of control

O=S1(=O)C2C=CCC1C(Cl)CC2 (stereo unspecified)
inactive: dose: 12.5 mg/kg/injection, schedule: Q01DX001 (ip), vehicle: Klucel (hydroxypropylcellulose) (HPC) 97 % of control | dose: 12.5 mg/kg/injection, schedule: Q01DX009 (ip), vehicle: Klucel (hydroxypropylcellulose) (HPC) 92 % of control | dose: 25.0 mg/kg/injection, schedule: Q01DX001 (ip), vehicle: Klucel (hydroxypropylcellulose) (HPC) 95 % of control | dose: 25.0 mg/kg/injection, schedule: Q01DX009 (ip), vehicle: Klucel (hydroxypropylcellulose) (HPC) 89 % of control | dose: 50.0 mg/kg/injection, schedule: Q01DX001 (ip), vehicle: Klucel (hydroxypropylcellulose) (HPC) 93 % of control

CCOC(=O)C(Cc1cc(C(C)(C)C)c(O)c(C(C)(C)C)c1)(NC=O)C(=O)OCC
inactive: dose: 50.0 mg/kg/injection, schedule: Q01DX009 (ip), vehicle: Klucel (hydroxypropylcellulose) (HPC) 103 % of control | dose: 100.0 mg/kg/injection, schedule: Q01DX009 (ip), vehicle: Klucel (hydroxypropylcellulose) (HPC) 100 % of control | dose: 200.0 mg/kg/injection, schedule: Q01DX009 (ip), vehicle: Klucel (hydroxypropylcellulose) (HPC) 96 % of control

Source: PubChem BioAssay AID248 (DTP/NCI, 2004)
